These results are taken from publication PMC7814170 (Molecular Biotechnology, 2021).

The target in the first test is SARS-CoV-2 main protease 3CLpro (Severe acute respiratory syndrome coronavirus 2, UniProt P0DTD1). The test is described as follows: cell-based. The note with it: read-out: inhibition to viral protease (reduction in GFP fluorescent activity).
A word on the inhibition: it is the share of the control response that was lost under treatment. `CC(C)(C)NC(=O)N[C@H](C(=O)N1C[C@H]2[C@@H]([C@H]1C(=O)NC(CC1CCC1)C(=O)C(N)=O)C2(C)C)C(C)(C)C` (stereo partly shown) [Boceprevir, boceprevir, reference compound]: the inhibition at 40 µM was 80%. On to `O=C1c2ccccc2NC(c2cc(Br)ccc2O)N1N=Cc1cc(Br)ccc1O` (stereo not shown) [QZ1, 3-(5-Bromo-2-hydroxybenzylideneamino)-2-(5-bromo-2-hydroxyphenyl)-2,3-dihydroquinazoline-4 (1H)-one], for which the inhibition at 40 µM is 20 to 50%.

For the compound `O=C1c2ccccc2NC(c2cc(Cl)ccc2O)N1N=Cc1cc(Cl)ccc1O` (stereo not shown) [QZ2, 3-[(5-Chloro-2-hydroxy-benzylidene)-amino]-2-(5-chloro-2-hydroxy-phenyl)-2,3-dihydroquinazoline-4(1H)-one], the inhibition at 40 µM fell in the range of 20 to 50%.

Consider `COc1cc(Br)cc(C=NN2C(=O)c3ccccc3NC2c2cc(Br)cc(OC)c2O)c1O` (stereo not shown) [QZ3, 3-(5-Bromo-2-hydroxy-3-methoxybenzylideneamino)-2-(5-bromo-2-hydroxy-3-methoxyphenyl)-2,3-dihydroquinazoline-4(1H)-one], for which the inhibition at 40 µM was in the range of 20 to 50%. The same measure, in the same setting: the value for `COc1ccc(O)c(C=NN2C(=O)c3ccccc3NC2c2cc(OC)ccc2O)c1` (stereo not shown) [QZ4, 3-(5-Methoxy-2-hydroxybenzylideneamino)-2(5-methoxy-2-hydroxyphenyl)-2,3-dihydroquinazoline-4(1H)-one] was about 80%; that for `O=C1c2ccccc2NC(c2cc([N+](=O)[O-])ccc2O)N1N=Cc1cc([N+](=O)[O-])ccc1O` (stereo not shown) [QZ5, 3-(5-Nitro-2-hydroxybenzylideneamino)-2(5-nitro-2-hydroxyphenyl)-2,3-dihydroquinazoline-4(1H)-one] was 20 to 50%.

Another test concerns SARS-CoV-2 main protease.
Assay: not given
As to conditions: read-out: EC50 measured by FRET-based enzymatic assay; cited from earlier work.
What is called EC50 is the concentration that produces a half-maximal response. In the case of `CC(C)(C)NC(=O)N[C@H](C(=O)N1C[C@H]2[C@@H]([C@H]1C(=O)NC(CC1CCC1)C(=O)C(N)=O)C2(C)C)C(C)(C)C` (stereo partly shown) [Boceprevir, boceprevir, reference compound], the EC50 was […].
